Where “and” joins values, the source holds several entries; their conditions need not be identical. Equal values may be shown once.
What was measured:
Assay type in all cases: physicochemical
[1] = Spectral characteristics of selected triarylmethyl alcohols (Table IX); conditions: saturated ZnBr2 nitromethane solution; for Extinction Coefficient: at the λ maximum of the same line
Experimental: of selected triarylmethyl alcohols.
^2 All spectra were taken in a saturated ZnBr2 nitromethane
solution. All spectra were recorded on a Carey model 21, scanning from 35

[2] = Protic acid hydrolysis rates of triarylmethyl groups attached to the 5'-hydroxyl of deoxynucleosides (Table VIII); conditions: 2% toluenesulfonic acid in chloroform:methanol (7:3)
Experimental: The 5'-triarylmethyldeoxynucleosides were treated with protic and Lewis acids using carefully controlled conditions. The results of these studies are also recorded in Tables VII and VIII. […] The rates are more variable with protic acids.
^1 Reaction conditions were 2% toluenesulfonic acid in
chloroform:methanol (7:3). Aliquots were removed from the reaction
solution, quenched with ammonium acetate and analyzed visually after tlc
and exposure to HCl vapors. Time points were taken at 15, 30, 45, 60, 90,

[3] = Rate of detritylation and depurination using various solutions (Table II); conditions: for Detritylation time: 100% detritylation
Source text: A particularly preferred embodiment of the present invention is the detritylation of the 5'-O trityl nucleosides, deoxynucleotides, oligonucleotides, oligodeoxynucleotides, polynucleotides and polydeoxynucleotides using a Lewis acid, particularly zinc bromide, although other Lewis acids can also be employed, e.g. titanium tetrachloride. […] The process is also specific for 5'-O-trityl and thus provides a very practical procedure to permit production of 3'-O-trityl blocked nucleosides by reaction with the 3'-O and 5'-O ditritylated compound.
(§1) The procedure merely requires contacting the reactants preferably in a reaction solvent and detritylation occurs within short reaction times. The Lewis acid is normally suspended in the reaction solvent and the solvent is usually water-free to prevent reaction with the Lewis acid to form protic acids. In present experience, nitromethane is the preferred solvent although a variety of other solvents can be used, e.g. dioxane and tetrahydrofuran and mixtures of such solvents with each other and other solvents such as acetone, methylene chloride, and the like.
The Rate of Detritylation and Depurination of 5'-
Dimethoxytrityl-N--benzoyldeoxyadenosine Using
*All depurination results summarized in this communication were obtained
by analyzing reaction mixtures using reverse phase high pressure liquid
chromatography. Estimates of detritylation times were by thin layer
**A nitromethane solution saturated with ZnBr2 is approximately 0.1

[4] = Rate of detritylation and degradation of 5'-trityldeoxynucleosides using ZnBr2 at room temperature (Table III); conditions: for Detritylation time: 100% detritylation; for Detritylation %: <1 min
Source text: as §1
The results obtained with various tritylthymidines at room temperature with zinc bromide is give in Table III.
The Rate of Detritylation and Degradation of 5'-
Trityldeoxynucleosides Using ZnBr2 at Room

[5] = Rate of detritylation of various tritylthymidines using saturated ZnBr2 in nitromethane at 0° C. (Table IV); conditions: for % Detritylation: at the time of the same line (1, 10 or 30 min); for Detritylation time: time for the % detritylation of the same line
Source text: as §1
and at 0° C. in Table IV.
The Rate of Detritylation of Various Tritylthymidines
Using Saturated ZnBr2 in Nitromethane at 0° C.

OC(c1ccccc1)(c1ccc(F)cc1)c1cccc2ccccc12 (stereo not shown) [R1 = a; R2 = e; R3 = n]
λ Maximum(s) ([1]; listed as R1 = a, R2 = n, R3 = e): 577 nanometers and 421 nanometers

COc1ccc(C(OC[C@H]2O[C@@H](n3cnc4c(NC(=O)c5ccccc5)ncnc43)C[C@@H]2O)(c2ccccc2)c2ccc(OC)cc2)cc1 [5'-O-dimethoxytrityl-N-benzoyldeoxyadenosine]
Time to Complete Hydrolysis [2]: 30 s
Depurination time ([3]; 0.5% toluenesulfonic acid/CHCl3:CH3OH (7:3), 0° C., 50% depurination): 8 h
Detritylation time ([3]; 0.5% toluenesulfonic acid/CHCl3:CH3OH (7:3), 0° C.): 10 min
Detritylation % ([3]; 0.5% toluenesulfonic acid/CHCl3:CH3OH (7:3), 0° C., 10 min): 100%
Depurination % ([3]; 0.5% toluenesulfonic acid/CHCl3:CH3OH (7:3), 0° C., 8 hrs): 50%
Depurination time ([3]; 2% toluenesulfonic acid/CHCl3:CH3OH (7:3), 18° C., 50% depurination): 0.083 h
Detritylation time ([3]; 2% toluenesulfonic acid/CHCl3:CH3OH (7:3), 18° C.): < 1 min
Depurination % ([3]; 2% toluenesulfonic acid/CHCl3:CH3OH (7:3), 18° C., 5 min): 50%
Detritylation % ([3]; 2% toluenesulfonic acid/CHCl3:CH3OH (7:3), 18° C., <1 min): 100%
Detritylation time ([3]; satd. ZnBr2/CH3NO2, 0° C.): 10 min
Detritylation % ([3]; satd. ZnBr2/CH3NO2, 0° C., 10 min): 100%
Depurination % ([3]; satd. ZnBr2/CH3NO2, 0° C., 21 hrs): < 5%
Depurination time ([3]; satd. ZnBr2/CH3NO2, 0° C., <5% depurination): 21 h
Depurination time ([3]; satd. ZnBr2/CH3NO2, 18° C., 50% depurination): 10 h
Detritylation time ([3]; satd. ZnBr2/CH3NO2, 18° C.): < 1 min
Depurination % ([3]; satd. ZnBr2/CH3NO2, 18° C., 10 hrs): 50%
Detritylation % ([3]; satd. ZnBr2/CH3NO2, 18° C., <1 min): 100%

COc1ccc(C(O)(c2ccccc2)c2cccc3ccccc23)cc1 (stereo not shown) [R1 = a; R2 = c; R3 = n]
λ Maximum(s) [1]: 545 nanometers and 455 nanometers
Extinction Coefficient [1]: 25000 Molar^-1 cm^-1 and 28000 Molar^-1 cm^-1

Cc1cn([C@H]2C[C@H](O)[C@@H](COC(c3ccccc3)(c3ccc(F)cc3)c3cccc4ccccc34)O2)c(=O)[nH]c1=O (stereo partly shown) [R1 = n; R2 = e; R3 = a, T]
Time to Complete Hydrolysis [2]: > 600 s
t1/2 in H+ [2]: 180 s

Cc1ccc(C(OC[C@H]2O[C@@H](n3cnc4c(NC(=O)c5ccccc5)ncnc43)C[C@@H]2O)(c2ccccc2)c2ccccc2)cc1 [R1 = h; R2 = R3 = a, A]
Time to Complete Hydrolysis [2]: 240 s
t1/2 in H+ [2]: 60 s

COc1ccc(C(OC[C@H]2O[C@@H](n3cc(C)c(=O)[nH]c3=O)C[C@@H]2O)(c2ccccc2)c2cccc3ccccc23)cc1 (stereo partly shown) [R1 = n; R2 = c; R3 = a, T]
Time to Complete Hydrolysis [2]: 45 s
t1/2 in H+ [2]: 30 s

COc1ccc(C(OC[C@H]2O[C@@H](n3ccc(NC(=O)c4ccccc4)nc3=O)C[C@@H]2O)(c2ccccc2)c2ccc(OC)cc2)cc1 [5'-O-dimethoxytrityl-N-benzoyldeoxycytidine]
Time to Complete Hydrolysis [2]: 30 s
Degradation time [4]: 24 h
Detritylation time [4]: < 1 min
Detritylation % [4]: 100%

Cc1cn([C@H]2C[C@H](O)[C@@H](COC(c3ccccc3)(c3ccccc3)c3ccccc3)O2)c(=O)[nH]c1=O [5'-Tritylthymidine]
% Detritylation [5]: 50%
Detritylation time [5]: 10 min

Cc1ccc(C(O)(c2ccccc2)c2ccccc2)cc1 [R1 = h; R2 = R3 = a]
λ Maximum(s) [1]: 452 nanometers
Extinction Coefficient [1]: 42000 Molar^-1 cm^-1

COc1ccccc1C(OC[C@H]1O[C@@H](n2cnc3c(=O)[nH]c(NC(=O)C(C)C)nc32)C[C@@H]1O)(c1ccccc1)c1ccccc1OC [R1 = R2 = b; R3 = a, G]
Time to Complete Hydrolysis [2]: 45 s
t1/2 in H+ [2]: 15 s

COc1ccccc1C(OC[C@H]1O[C@@H](n2cc(C)c(=O)[nH]c2=O)C[C@@H]1O)(c1ccccc1OC)c1cccc2ccccc12 [R1 = R2 = b; R3 = n, T]
Time to Complete Hydrolysis [2]: 90 s
t1/2 in H+ [2]: 45 s

COc1ccccc1C(OC[C@H]1O[C@@H](n2ccc(NC(=O)c3ccccc3)nc2=O)C[C@@H]1O)(c1ccccc1OC)c1cccc2ccccc12 [R1 = R2 = b; R3 = n, C]
Time to Complete Hydrolysis [2]: 120 s

COc1ccccc1C(O)(c1ccccc1OC)c1cccc2ccccc12 [R1 = R2 = b; R3 = n]
λ Maximum(s) [1]: 586 nanometers
Extinction Coefficient [1]: 15500 Molar^-1 cm^-1

COc1ccccc1C(O)(c1ccccc1)c1ccccc1OC [R1 = R2 = b; R3 = a]
λ Maximum(s) [1]: 423 nanometers and 503 nanometers and 586 nanometers

COc1ccc(C(OC[C@H]2O[C@@H](n3cnc4c(=O)[nH]c(NC(=O)C(C)C)nc43)C[C@@H]2O)(c2ccccc2)c2ccc(OC)cc2)cc1 [5'-O-dimethoxytrityl-N-isobutyryldeoxyguanosine]
Time to Complete Hydrolysis [2]: 30 s
Degradation time [4]: 50 h
Detritylation time [4]: < 1 min
Detritylation % [4]: 100%

COc1ccc(C(OC[C@H]2O[C@@H](n3cc(C)c(=O)[nH]c3=O)C[C@@H]2O)(c2ccccc2)c2ccc(OC)cc2)cc1 [5'-Dimethoxytritylthymidine]
Time to Complete Hydrolysis [2]: 30 s
% Detritylation [5]: 50%
Detritylation time [5]: 1 min
Degradation time [4]: 24 h
Detritylation time [4]: < 1 min
Detritylation % [4]: 100%

Reference: patent US4500707A, “Nucleosides useful in the preparation of polynucleotides” (University Patents, Inc., priority 1982, dated 1985)
